Laboratory results reported in patent publication US20190062699A1, “HIGHLY FUNCTIONAL HEPATOCYTE AND USE THEREOF” (GAIA BioMedicine Inc., priority 2016, published 2019).
“Also recorded” adds a separate entry of the source.

Tested on: iPS-HEP cells
Assay: ammonia metabolism test (Ammonia Test Wako) on iPS-derived hepatocytes
Assay type: cell-based, human
Settings: compounds in differentiation induction medium III (FH1 final 50 μM, FPH1 final 20 μM); compared with use of feeder cells (HUVECs, MSCs); 2 mM ammonia, 24 hours
Procedure: When HUVEC and MSC are used as feeder cells, perform co-culture as required as adhesion culture (refer to Non-patent document 1 cited below). • 2.11. Indicate the date, name of the cells, etc. on the culture plate, and carry out culture in an incubator at 37° C. and 5% CO2. • 2.12. Carry out an operation of removing the supernatant, and adding flesh medium III on every other day up to Day 17. • [Day 17: Completion of CiPS-Hep->ammonia metabolism test] • 1. Prepare HBM (cocktail)+aqueous ammonia (henceforth referred to as ammonia medium) in a volume of 1 ml/well×2.
• 2. Remove the culture supernatant, and wash the cell surfaces once with 1 ml of HBM, and once with ammonia HBM. • 3. […]
• 4. […] During the centrifugation, turn on the power sources of microplate reader and personal computer, and choose Tecan i-control. • 8. […] Remove a lid, set the plate on the microplate reader, and sway the plate (double click “Shaking”, choose “10 sec” and “Normal”, and click “Start”). • 11. […] Set the plate on the microplate reader, and sway the plate. • 13. […] Set the plate on the microplate reader, and sway the plate. • 15. […] Finely wipe the bottom of the plate, and set the plate on the microplate reader with adjusting the upper left corner. • 18. Measure absorbance (620 or 630 nm) (double click “Measure” of “Absorbance”, select the well for measurement at 620 nm in “Details”, and click “Start”).

SMILES	ammonia-metabolizing function-enhancing effect
CC(=O)Nc1ccc(Cc2ccc(NC(C)=O)cc2)cc1 [FH1, N,N′-(methylenebis)(4,1-phenylene)diacetamide]	higher ammonia-metabolizing function-enhancing effect compared with use of feeder cells; also recorded: higher metabolism-enhancing effect compared with use of feeder cells
Cc1ccc(Cl)cc1N(CC(=O)Nc1c(F)cccc1F)S(C)(=O)=O [FPH1, 2-N-(5-chloro-2-methylphenyl)(methylsulfonamido)-N-(2,6-difluorophenyl)acetamide]	higher ammonia-metabolizing function-enhancing effect compared with use of feeder cells; also recorded: higher metabolism-enhancing effect compared with use of feeder cells
